How the values were obtained:
[1] = Fluorescence imaging of doxorubicin distribution in rabbit livers after millirod implantation; details: in vivo
Protocol: In accordance with the present invention, we developed a fluorescence imaging method to analyze doxorubicin distribution in rabbit liver tissues. First, we determined the calibration curve to correlate fluorescence intensity with doxorubicin concentration in liver tissues. Second, we estimated the sensitivity limit (0.6 μg/g of liver tissue) for doxorubicin detection by this method. This value is well below the cytotoxic concentrations of doxorubicin to VX-2 cells (˜6.4 μg/g). (Ridge, J. A., Collin, C., Bading, J. R., Hancock, C., Conti, P. S., Daly, J. M. and Raaf, J. H. (1988) Cancer Res 48(16), 4584-7. Third, we used this method to quantify the dynamics of drug distribution in ablated and non-ablated rabbit livers over time. The detailed experimental procedure of the fluorescence imaging method is described below.
FIG. 14 compares the 2D doxorubicin distribution profiles between non-ablated and thermoablated liver tissues. In this set of experiments, a monolithic millirod with burst release kinetics (millirod (a) in FIG. 2) was implanted in either non-ablated or thermoablated livers. […] White dashed lines in the figures represent the ablated-normal tissue boundary, which was obtained by comparing the fluorescence image with an optical image of histology slides where this boundary is well-defined (see next section).

[2] = Structural integrity of doxorubicin after millirod fabrication (NMR); type: physicochemical; details: compression-heat molding, 90° C., 2 hours
Protocol: These devices are prepared as a monolithic system using a compression-heat-molding procedure that has been developed. (Qian, F., Szymanski, A. and Gao, J. (2001) J. Biomed. Mater. Res. 55, 512-522.) Briefly, doxorubicin solution (2 mg/mL, also containing 0.9% NaCl) from Bedford Laboratories is first dialyzed in distilled water to remove the NaCl. […] The well-mixed particles are placed in a Teflon tube and molded into a polymer millirod at a compression pressure of 4.6×10^6 Pa and a fabrication temperature at 90° C. for 2 hours.
Determination of the structural integrity of released doxorubicin. Released doxorubicin in PBS is desalted by gel filtration column chromatography (G-10 column, Pharmacia). Samples are lyophilized and characterized by ^1H and ^13C nuclear magnetic resonance (NMR) and mass spectrometry to examine their structural integrity. In NMR analysis, lyophilized agents are dissolved in deuterated methanol and spectrum will be obtained on a 300 MHz ^1H NMR instrument (Bruker). The chemical shifts of the released agents are compared to the pure compound to detect possible structural decomposition.

VX-2 cells = details: Ridge et al. 1988; cited from earlier work

For `COc1cccc2c1C(=O)c1c(O)c3c(c(O)c1C2=O)C[C@@](O)(C(=O)CO)C[C@@H]3O[C@H]1C[C@H](N)[C@H](O)[C@H](C)O1` [doxorubicin], the concentration at 24 h [1] is given as 50000 ng/g, the “structure of doxorubicin after fabrication” value [2] is given as “remained intact” and the “cytotoxic concentration of doxorubicin” value (VX-2 cells) is given as ~6.4 µg/g.

Reference: patent US20030118649A1, “Drug delivery devices and methods” (priority 2001, published 2003)
